molecular target: mushroom tyrosinase (Agaricus bisporus, UniProt C7FF04); format: biochemical
Experimental: Tyrosinase inhibitory potential of alk(en)ylhydroxycyclohexanes has not been previously reported.
Tyrosinase inhibitory activity was determined spectrophotometrically with slight modifications. Briefly, tested samples were dissolved in DMSO to a final concentration of 20 mg/mL. In a 24-well plate, 30 μL of the samples was added to 970 μL of potassium phosphate buffer (0.1 M, pH 6.5) and serially diluted two-fold. The mixture (70 μL) was transferred to a 96-well plate containing 30 μL of potassium phosphate buffer (0.1 M, pH 6.5) to obtain increasing concentration range of (1.56–200 μg/mL). Then, 30 μL of mushroom tyrosinase solution (333 Units/mL in phosphate buffer, pH 6.5) was added to each mixture, which was then incubated at 25 °C for 5 min. Thereafter, 110 µL of 2 mM L-tyrosine was added in all wells of a 96-well microtiter plate and further incubated for 30 min at 25 °C. […] The absorbance of the mixture was read at 492 nm using an ELISA microplate reader (VarioSkan Flash, Thermo Fisher Scientific, Vantaa, Finland). All experiments were performed in triplicates. The percent inhibition of tyrosinase was calculated as follows: Tyrosinase inhibitory (%)=(Ao−A1/Ao) × 100 where A0 is the absorbance of the negative control with the enzyme without test samples, A1 is the absorbance of the test samples and enzyme.
Data were expressed as mean ± SD from three independent experiments. The IC50 values, corresponding to the concentration required to inhibit 50% of tyrosinase activity, were calculated from a sigmoidal dose–response of a non-linear regression and R-square values representing the best fit of the model were determined by Pearson nonlinear regression using the GraphPad Prism 5 software (GraphPad Software, San Diego, CA, USA). A one-way ANOVA was performed and differences between means were separated using the Tukey multiple comparison test at p < 0.05. Experiments were performed in triplicate.

Chain of mushroom tyrosinase (C7FF04 1-392): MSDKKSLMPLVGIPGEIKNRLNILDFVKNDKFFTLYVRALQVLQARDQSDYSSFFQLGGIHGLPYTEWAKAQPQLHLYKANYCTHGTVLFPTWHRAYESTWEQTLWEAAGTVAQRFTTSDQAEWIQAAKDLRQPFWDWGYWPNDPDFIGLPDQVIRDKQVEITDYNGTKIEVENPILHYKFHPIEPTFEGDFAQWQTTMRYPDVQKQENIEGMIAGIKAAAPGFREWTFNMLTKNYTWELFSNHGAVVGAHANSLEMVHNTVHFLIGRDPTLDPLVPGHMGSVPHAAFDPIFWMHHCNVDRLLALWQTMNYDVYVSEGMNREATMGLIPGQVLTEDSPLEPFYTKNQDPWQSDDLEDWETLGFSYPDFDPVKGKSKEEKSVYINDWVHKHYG

| Structure (SMILES) | tyrosinase inhibition, rating in words |
| --- | --- |
| CCCC/C=C\CCCCCCCCCCCc1cccc(O)c1 [Compound 1, 3-heptadec-12′-Z-enyl phenol] | moderately active |
| CCCC/C=C\CCCCCCCCCCC[C@@]1(O)CCC[C@@H](O)C1 [Compound 2, (1R,3R)-1,3-dihydroxy-3-[heptadec-12′(Z)-enyl]cyclohexane] | good inhibition |
| CCCC/C=C\CCCCCCCCCCCC[C@@]1(O)C[C@@H](O)[C@H](O)[C@@H](O)[C@H]1O [Compound 3, (1S,2S,3S,4S,5R)-1,2,3,4,5-pentahydroxy-5-[octadec-13′(Z)-enyl]cyclohexane] | good inhibition |
| CCCC/C=C\CCCCCCCCCCC[C@]1(O)CC[C@@H](O)[C@H](O)C1 [Compound 4, (1R,2S,4R)-1,2,4-trihydroxy-4-[heptadec-12′(Z)-enyl]cyclohexane] | moderately active |
